Results from patent publication US7846928B2, “Substituted pyrazolopyridines and salts thereof, pharmaceutical compositions comprising same, methods of preparing same and uses of same” (Bayer Schering Pharma AG, priority 2006, dated 2010).

Assays:
Tie2 = Tie2 (Homo sapiens, UniProt Q02763); assay: Tie2 ELISA assay (assay 1): cellular Tie2 autophosphorylation in Tie2-transfected CHO cells stimulated by angiopoietin-2; assay type: cell-based; design: expressed in transfected cells; host or cells: CHO (DHFR-deficient), stably transfected: CHO Tie2/DHFR; settings: CHO Tie2/DHFR cells, Ang2 stimulated, Tie2 autophosphorylation sandwich-ELISA; pIC50 = -log IC50 molar; read-out: Tie 2 activity (assay 1)
Tie2, sequence (Q02763 23-1124): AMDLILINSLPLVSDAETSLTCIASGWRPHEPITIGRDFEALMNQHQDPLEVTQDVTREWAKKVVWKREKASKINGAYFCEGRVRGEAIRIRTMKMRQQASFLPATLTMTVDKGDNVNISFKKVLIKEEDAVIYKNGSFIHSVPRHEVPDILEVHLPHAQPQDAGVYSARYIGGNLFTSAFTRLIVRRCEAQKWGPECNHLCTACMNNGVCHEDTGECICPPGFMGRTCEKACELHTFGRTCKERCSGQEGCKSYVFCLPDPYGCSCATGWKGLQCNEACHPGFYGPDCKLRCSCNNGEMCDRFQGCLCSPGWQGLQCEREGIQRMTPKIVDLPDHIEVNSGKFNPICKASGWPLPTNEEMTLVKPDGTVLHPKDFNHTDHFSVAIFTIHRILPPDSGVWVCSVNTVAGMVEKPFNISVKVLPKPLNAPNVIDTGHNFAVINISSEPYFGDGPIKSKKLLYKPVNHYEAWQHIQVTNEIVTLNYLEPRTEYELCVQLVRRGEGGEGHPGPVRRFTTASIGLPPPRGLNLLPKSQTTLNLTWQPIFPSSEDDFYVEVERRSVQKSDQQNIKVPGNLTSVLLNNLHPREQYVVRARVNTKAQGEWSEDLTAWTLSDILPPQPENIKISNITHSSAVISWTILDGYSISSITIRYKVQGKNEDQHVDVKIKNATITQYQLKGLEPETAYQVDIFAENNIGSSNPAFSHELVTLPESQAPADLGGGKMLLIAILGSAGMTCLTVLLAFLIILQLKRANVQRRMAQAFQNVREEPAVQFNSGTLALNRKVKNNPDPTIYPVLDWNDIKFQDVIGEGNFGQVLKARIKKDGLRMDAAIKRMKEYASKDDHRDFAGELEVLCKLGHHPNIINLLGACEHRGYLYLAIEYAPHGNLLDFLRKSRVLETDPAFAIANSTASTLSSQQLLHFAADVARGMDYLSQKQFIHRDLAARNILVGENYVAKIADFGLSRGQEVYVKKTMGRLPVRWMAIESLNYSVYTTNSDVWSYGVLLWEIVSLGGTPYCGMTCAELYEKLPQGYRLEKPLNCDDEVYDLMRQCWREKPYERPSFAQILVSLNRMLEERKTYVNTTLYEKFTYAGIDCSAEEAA
Description: Cellular activity of compounds of the present invention as inhibitors of Tie2 kinase activity was measured employing a Tie2 ELISA assay as described in the following paragraphs. Herein CHO cell-cultures, which are stably transfected by known techniques with Tie2 using DHFR deficiency as selection marker, are stimulated by angiopoietin-2. The specific autophosphorylation of Tie2 receptors is quantified with a sandwich-ELISA using anti-Tie2 antibodies for catch and anti-phosphotyrosine antibodies coupled to HRP for detection.
• 96 well tissue culture plate, sterile, Greiner • 96 well FluoroNunc plate MaxiSorp Surface C, Nunc • 96 well plate polypropylene for compound dilution in DMSO • CHO Tie2/DHFR (transfected cells) • PBS−; PBS++, DMSO • MEM alpha Medium with Glutamax-I without Ribonucleosides and • Deoxyribonucleosides (Gibco #32561-029) • with 10% FCS after dialysis! and 1% PenStrep • Lysis buffer: 1 Tablet “Complete” protease inhibitor • 1 cap Vanadate (1 mL>40 mg/mL; working solution 2 mM) • ad 50 mL with Duschl-Puffer • pH 7.6 • Anti-Tie2-antibody 1:425 in Coating Buffer pH 9.6 • Stock solution: 1.275 mg/mL>working: 3 μg/mL • PBST: 2 bottles PBS(10×)+10 ml Tween, fill up with VE-water • RotiBlock 1:10 in VE-water • Anti-Phosphotyrosine HRP-Conjugated 1:10000 in 3% TopBlock • 3% TopBlock in PBST • BM Chemiluminescence ELISA Substrate (POD) • solution B1:100 solution A • SF9 cell culture medium • Ang2-Fc in SF9 cell culture medium Cell Experiment: • Dispense 5×10^4 cells/well/98 μL in 96 well tissue culture plate • Incubate at 37° C./5% CO2 • After 24 h add compounds according to desired concentrations • Add also to control and stimulated values without compounds 2 μL DMSO • And mix for a few min at room temperature • Add 100 μL Ang2-Fc to all wells except control, which receives insect medium • Incubate 20 min at 37° C. • Wash 3× with PBS++ • Add 100 μl Lysis buffer/well and shake a couple of min at room temperature • Store lysates at 20° C. before utilizing for the ELISA Performance of Sandwich-ELISA • Coat 96 well FluoroNunc Plate MaxiSorp Surface C with anti-Tie2 mAb • 1:425 in Coating buffer pH 9.6; 100 μL/well overnight at 4° C. • Wash 2× with PBST • Block plates with 250 μL/well RotiBlock 1:10 in VE-water • Incubate for 2 h at room temperature or overnight at 4° C. shaking • Wash 2× in PBST • Add thawed lysates to wells and incubate overnight shaking at 4° C. • Wash 2× with PBST • Add 100 μL/well anti-Phosphotyrosine HRP-Conjugated 1:10000 in 3% • TopBlock (3% TopBlock in PBST) and incubate overnight under shaking • Wash 6× with PBST • Add 100 μL/well BM Chemiluminescence ELISA Substrate (POD) • solutions 1 und 2 (1:100) • Determine luminescence with the LumiCount. Assay 2: Tie-2-Kinase HTRF-Assay without Kinase Preactivation

[1] = target: T1, human insuline receptor (Ins-R) kinase domain (Homo sapiens, UniProt P06213); assay: InsR HTRF assay (assay 4); assay type: biochemical; settings: IC50 assay 4/IC50 assay 2
T1 construct: GST-tagged recombinant kinase domain of the human insuline receptor; GST; purchased ProQinase, Freiburg, Germany; host or cells: SF-9 cells
T1 sequence (P06213 1023-1298 limits assumed): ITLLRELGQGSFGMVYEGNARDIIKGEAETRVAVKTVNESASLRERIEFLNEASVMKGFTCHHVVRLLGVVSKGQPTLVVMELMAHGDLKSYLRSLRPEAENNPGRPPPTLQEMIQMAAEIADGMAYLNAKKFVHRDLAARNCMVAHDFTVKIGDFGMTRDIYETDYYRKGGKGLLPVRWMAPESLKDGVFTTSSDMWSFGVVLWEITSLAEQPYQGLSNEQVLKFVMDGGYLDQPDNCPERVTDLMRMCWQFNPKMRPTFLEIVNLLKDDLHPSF
Description: Inhibitory activity of compounds against the kinase activity of the insulin receptor was quantified employing the Ins-R HTRF assay as described in the following paragraphs.
GST-tagged recombinant kinase domain of the human insuline receptor (Ins-R, purchase from ProQinase, Freiburg, Germany) expressed in SF-9 cells was used as kinase. As substrate for the kinase reaction biotinylated poly-(Glu,Tyr) (Cis biointernational, France) was used.
Ins-R was incubated for 20 min at 22° C. in the presence of different concentrations of test compounds in 5 μl assay buffer [50 mM Hepes/NaOH pH 7, 15 mM MnCl2, 1 mM dithiothreitol, 0.1 μM sodium ortho-vanadate, 0.015% (v/v) PEG20000, 10 μM adenosine-tri-phosphate (ATP), 0.3 μg/ml substrate, 1% (v/v) dimethylsulfoxide]. The concentration of Ins-R was adjusted depending of the activity of the enzyme lot and was chosen appropriate to have the assay in the linear range, typical concentrations were in the range of 10 pg/μl. The reaction was stopped by the addition of 5 μl of a solution of HTRF detection reagents (0.1 μM streptavidine-XLent and 1 nM PT66-Eu-Chelate, an europium-chelate labelled anti-phosphotyrosine antibody from Perkin Elmer) in an aqueous EDTA-solution (80 mM EDTA, 0.2% (w/v) bovine serum albumin in 50 mM HEPES/NaOH pH 7.0).
The resulting mixture was incubated 1 h at 22° C. to allow the binding of the biotinylated phosphorylated peptide to the streptavidine-XLent and the PT66-Eu-Chelate. Subsequently the amount of phosphorylated substrate was evaluated by measurement of the resonance energy transfer from the PT66-Eu-Chelate to the streptavidine-XLent. Therefore, the fluorescence emissions at 620 nm and 665 nm after excitation at 350 nm was measured in a HTRF reader, e.g. a Rubystar (BMG Labtechnologies, Offenburg, Germany) or a Viewlux (Perkin-Elmer). The ratio of the emissions at 665 nm and at […] was taken as the measure for the amount of phosphorylated substrate. The data were normalised (enzyme reaction without inhibitor=0% inhibition, all other assay components but no enzyme=100% inhibition) and IC50 values were calculated by a 4 parameter fit using an inhouse software.

CCc1cccc(NC(=O)Nc2ccc(-c3cc(C(C)(C)C)nc4[nH]ncc34)cc2)c1 [1.1, 1-[4-(6-tert-Butyl-1H-pyrazolo[3,4-b]pyridin-4-yl)-phenyl]-3-(3-ethylphenyl)-urea]
IC50 (Tie2): < 501 nM | Selectivity vs. InsR [1]: >20 fold

CC(C)c1cc(-c2ccc(NC(=O)Nc3cccc(C(F)(F)F)c3)cc2)c2cn[nH]c2n1 [1.2, 1-[4-(6-Isopropyl-1H-pyrazolo[3,4-b]pyridin-4-yl)-phenyl]-3-(3-trifluoromethyl-phenyl)-urea]
IC50 (Tie2): < 501 nM | Selectivity vs. InsR [1]: >20 fold

CC(C)c1cc(-c2ccc(NC(=O)Nc3cccc(C(F)(F)F)c3)cc2)c2cnn(C)c2n1 [1.3, 1-[4-(6-Isopropyl-1-methyl-1H-pyrazolo[3,4-b]pyridin-4-yl)-phenyl]-3-(3-trifluoromethyl-phenyl)-urea]
IC50 (Tie2): < 501 nM | Selectivity vs. InsR [1]: >20 fold

Cn1ncc2c(-c3ccc(NC(=O)Nc4cccc(C(F)(F)F)c4)cc3)ccnc21 [1.4, 1-[4-(1-Methyl-1H-pyrazolo[3,4-b]pyridin-4-yl)-phenyl]-3-(3-trifluoromethyl-phenyl)-urea]
IC50 (Tie2): < 501 nM | Selectivity vs. InsR [1]: >20 fold

Cc1ccc(F)c(NC(=O)Nc2ccc(-c3ccnc4c3cnn4C)cc2)c1 [1.7, 1-(2-Fluoro-5-methyl-phenyl)-3-[4-(1-methyl-1H-pyrazolo[3,4-b]pyridin-4-yl)-phenyl]-urea]
IC50 (Tie2): < 501 nM | Selectivity vs. InsR [1]: >20 fold

Cn1ncc2c(-c3ccc(NC(=O)Nc4cc(C(F)(F)F)ccc4F)cc3)ccnc21 [1.8, 1-(2-Fluoro-5-trifluoromethyl-phenyl)-3-[4-(1-methyl-1H-pyrazolo[3,4-b]-pyridin-4-yl)-phenyl]-urea]
IC50 (Tie2): < 501 nM | Selectivity vs. InsR [1]: >20 fold

Cc1cccc(NC(=O)Nc2ccc(-c3cc(C(C)(C)C)nc4[nH]ncc34)cc2)c1 [1.11, 1-[4-(6-tert-Butyl-1H-pyrazolo[3,4-b]pyridin-4-yl)-phenyl]-3-m-tolyl-urea]
IC50 (Tie2): 501 to 1000 nM | Selectivity vs. InsR [1]: >20 fold

CN1CCN(Cc2ccc(NC(=O)Nc3ccc(-c4cc(C(C)(C)C)nc5[nH]ncc45)cc3)cc2C(F)(F)F)CC1 [1.15, 1-[4-(6-tert-Butyl-1H-pyrazolo[3,4-b]pyridin-4-yl)-phenyl]-3-[4-(4-methyl-piperazin-1-ylmethyl)-3-trifluoromethyl-phenyl]-urea]
IC50 (Tie2): < 501 nM | Selectivity vs. InsR [1]: >20 fold

Cc1cc(-c2ccc(NC(=O)Nc3cccc(C(F)(F)F)c3)cc2)c2cn[nH]c2n1 [1.18, 1-[4-(6-Methyl-1H-pyrazolo[3,4-b]pyridin-4-yl)-phenyl]-3-(3-trifluoromethyl-phenyl)-urea]
IC50 (Tie2): < 501 nM | Selectivity vs. InsR [1]: >20 fold

O=C(Nc1ccc(-c2ccnc3[nH]ncc23)cc1)Nc1cccc(C(F)(F)F)c1 [1.20, 1-[4-(1H-Pyrazolo[3,4-b]pyridin-4-yl)-phenyl]-3-(3-trifluoromethyl-phenyl)-urea]
IC50 (Tie2): < 501 nM | Selectivity vs. InsR [1]: >20 fold

Cc1ccc(F)c(NC(=O)Nc2ccc(-c3ccnc4[nH]ncc34)cc2)c1 [1.22, 1-(2-Fluoro-5-methyl-phenyl)-3-[4-(1H-pyrazolo[3,4-b]pyridin-4-yl)-phenyl]-urea]
IC50 (Tie2): < 501 nM | Selectivity vs. InsR [1]: >20 fold

CN1CCC(Oc2ccc(NC(=O)Nc3ccc(-c4ccnc5c4cnn5C)cc3)cc2C(F)(F)F)CC1 [1.23, 1-[4-(1-Methyl-piperidin-4-yloxy)-3-trifluoromethyl-phenyl]-3-[4-(1-methyl-1H-pyrazolo[3,4-b]pyridin-4-yl)-phenyl]-urea]
IC50 (Tie2): < 501 nM | Selectivity vs. InsR [1]: >20 fold

CN1CCN(Cc2ccc(NC(=O)Nc3ccc(-c4ccnc5c4cnn5C)cc3)cc2C(F)(F)F)CC1 [1.24, 1-[4-(4-Methyl-piperazin-1-ylmethyl)-3-trifluoromethyl-phenyl]-3-[4-(1-methyl-1H-pyrazolo[3,4-b]pyridin-4-yl)-phenyl]-urea]
IC50 (Tie2): < 501 nM | Selectivity vs. InsR [1]: >20 fold

CN(C)C(=O)C1(c2cc(-c3ccc(NC(=O)Nc4cccc(C(F)(F)F)c4)cc3)c3cnn(C)c3n2)CC1 [1.26, 1-(1-Methyl-4-{4-[3-(3-trifluoromethyl-phenyl)-ureido]-phenyl}-1H-pyrazolo[3,4-b]pyridin-6-yl)-cyclopropane-carboxylic acid dimethylamide]
IC50 (Tie2): < 501 nM | Selectivity vs. InsR [1]: >20 fold

Cc1ccc(F)c(NC(=O)Nc2ccc(-c3cc(C4(C(=O)N(C)C)CC4)nc4c3cnn4C)cc2)c1 [1.29, 1-(4-{4-[3-(2-Fluoro-5-methyl-phenyl)-ureido]-phenyl}-1-methyl-1H-pyrazolo[3,4-b]pyridin-6-yl)-cyclopropane-carboxylic acid dimethylamide]
IC50 (Tie2): < 501 nM | Selectivity vs. InsR [1]: >20 fold

CN1CCN(Cc2ccc(NC(=O)Nc3ccc(-c4ccnc5[nH]ncc45)cc3)cc2C(F)(F)F)CC1 [1.33, 1-[4-(4-Methyl-piperazin-1-yl-methyl)-3-trifluoromethyl-phenyl]-3-[4-(1H-pyrazolo[3,4-b]pyridin-4-yl)-phenyl]-urea]
IC50 (Tie2): < 501 nM | Selectivity vs. InsR [1]: >20 fold

Cn1ncc2c(-c3ccc(NC(=O)Nc4cccc(C(F)(F)F)c4)cc3)cc(C3CCC3)nc21 [1.37, 1-[4-(6-Cyclobutyl-1-methyl-1H-pyrazolo[3,4-b]pyridin-4-yl)-phenyl]-3-(3-trifluoromethyl-phenyl)-urea]
IC50 (Tie2): < 501 nM | Selectivity vs. InsR [1]: >20 fold

Cn1ncc2c(-c3ccc(NC(=O)Nc4cccc(C(F)(F)F)c4)cc3)cc(C3CCCCC3)nc21 [1.38, 1-[4-(6-Cyclohexyl-1-methyl-1H-pyrazolo[3,4-b]pyridin-4-yl)-phenyl]-3-(3-trifluoromethyl-phenyl)-urea]
IC50 (Tie2): < 501 nM | Selectivity vs. InsR [1]: >20 fold

Cc1cc(-c2ccc(NC(=O)Nc3cc(F)cc(C(F)(F)F)c3)cc2)c2cnn(C)c2n1 [2.4, 1-[4-(1,6-Dimethyl-1H-pyrazolo[3,4-b]pyridin-4-yl)-phenyl]-3-(3-fluoro-5-trifluoromethyl-phenyl)-urea]
IC50 (Tie2): < 501 nM | Selectivity vs. InsR [1]: >20 fold
